# Test results as given in the kinase profiling compilation of Christmann-Franck et al. (2016).
# Key:
# Test in all cases: KINOMEscan competition binding
# Settings in all cases: compound 10.0 µM
# [1] = system: RET (human), P07949 [M918T]
# PTK2 (human) = PTK2 (human) (UniProt Q05397)
# PHKG1 (human) = PHKG1 (human) (UniProt Q16816)
# BMPR2 (human) = BMPR2 (human) (UniProt Q13873)
# CSNK2A2 (human) = CSNK2A2 (human) (UniProt P19784)
# DAPK3 (human) = DAPK3 (human) (UniProt O43293)
# MAP2K3 (human) = MAP2K3 (human) (UniProt P46734)
# TAOK3 (human) = TAOK3 (human) (UniProt Q9H2K8)
# MYO3B (human) = MYO3B (human) (UniProt Q8WXR4)
# CDKL1 (human) = CDKL1 (human) (UniProt Q00532)
# MAP4K2 (human) = MAP4K2 (human) (UniProt Q12851)
# MAP3K2 (human) = MAP3K2 (human) (UniProt Q9Y2U5)
# INSR (human) = INSR (human) (UniProt P06213)
# PRKAA1 (human) = PRKAA1 (human) (UniProt Q13131)
# ERBB2 (human) = ERBB2 (human) (UniProt P04626)
# YSK4 (human) = YSK4 (human) (UniProt Q56UN5)
# NEK9 (human) = NEK9 (human) (UniProt Q8TD19)
# TEK (human) = TEK (human) (UniProt Q02763)
# INSRR (human) = INSRR (human) (UniProt P14616)
# SRPK3 (human) = SRPK3 (human) (UniProt Q9UPE1)
# MAPK15 (human) = MAPK15 (human) (UniProt Q8TD08)
# TTK (human) = TTK (human) (UniProt P33981)
# SGK3 (human) = SGK3 (human) (UniProt Q96BR1)
# CRK2 (P.falciparum) = CRK2 (P.falciparum) (UniProt P61075)
# MAPK6 (human) = MAPK6 (human) (UniProt Q16659)
# CHEK2 (human) = CHEK2 (human) (UniProt O96017)
# PIK3C2G (human) = PIK3C2G (human) (UniProt O75747)
# MERTK (human) = MERTK (human) (UniProt Q12866)
# SGK110 (human) = SGK110 (human) (UniProt P0C264)
# GSK3B (human) = GSK3B (human) (UniProt P49841)
# HUNK (human) = HUNK (human) (UniProt P57058)
# [2] = system: PIK3CA (human), P42336 [E545K]
# [3] = system: KIT (human), P10721 [V559D]
# LIMK2 (human) = LIMK2 (human) (UniProt P53671)
# ERN1 (human) = ERN1 (human) (UniProt O75460)
# PRKD2 (human) = PRKD2 (human) (UniProt Q9BZL6)
# DCLK3 (human) = DCLK3 (human) (UniProt Q9C098)
# CAMK2D (human) = CAMK2D (human) (UniProt Q13557)
# CDKL3 (human) = CDKL3 (human) (UniProt Q8IVW4)
# CDK4 CCND1 (human) = CDK4 CCND1 (human) (UniProt P11802+P24385)
# RIPK1 (human) = RIPK1 (human) (UniProt Q13546)
# DAPK3 (human), sequence (O43293 whole entry, looked up): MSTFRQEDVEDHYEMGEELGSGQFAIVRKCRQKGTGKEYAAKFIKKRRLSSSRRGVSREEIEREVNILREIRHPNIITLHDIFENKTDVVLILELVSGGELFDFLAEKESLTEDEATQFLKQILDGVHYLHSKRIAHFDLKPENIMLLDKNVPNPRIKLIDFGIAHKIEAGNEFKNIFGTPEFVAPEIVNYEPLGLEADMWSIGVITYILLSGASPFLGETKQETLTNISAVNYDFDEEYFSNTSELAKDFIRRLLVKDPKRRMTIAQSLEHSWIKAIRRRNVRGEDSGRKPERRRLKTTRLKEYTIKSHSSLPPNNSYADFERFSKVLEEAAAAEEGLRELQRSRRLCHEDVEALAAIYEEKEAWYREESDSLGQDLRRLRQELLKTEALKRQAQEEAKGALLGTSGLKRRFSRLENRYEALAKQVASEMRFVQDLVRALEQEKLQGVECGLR
# ERBB2 (human), sequence (P04626 whole entry, looked up): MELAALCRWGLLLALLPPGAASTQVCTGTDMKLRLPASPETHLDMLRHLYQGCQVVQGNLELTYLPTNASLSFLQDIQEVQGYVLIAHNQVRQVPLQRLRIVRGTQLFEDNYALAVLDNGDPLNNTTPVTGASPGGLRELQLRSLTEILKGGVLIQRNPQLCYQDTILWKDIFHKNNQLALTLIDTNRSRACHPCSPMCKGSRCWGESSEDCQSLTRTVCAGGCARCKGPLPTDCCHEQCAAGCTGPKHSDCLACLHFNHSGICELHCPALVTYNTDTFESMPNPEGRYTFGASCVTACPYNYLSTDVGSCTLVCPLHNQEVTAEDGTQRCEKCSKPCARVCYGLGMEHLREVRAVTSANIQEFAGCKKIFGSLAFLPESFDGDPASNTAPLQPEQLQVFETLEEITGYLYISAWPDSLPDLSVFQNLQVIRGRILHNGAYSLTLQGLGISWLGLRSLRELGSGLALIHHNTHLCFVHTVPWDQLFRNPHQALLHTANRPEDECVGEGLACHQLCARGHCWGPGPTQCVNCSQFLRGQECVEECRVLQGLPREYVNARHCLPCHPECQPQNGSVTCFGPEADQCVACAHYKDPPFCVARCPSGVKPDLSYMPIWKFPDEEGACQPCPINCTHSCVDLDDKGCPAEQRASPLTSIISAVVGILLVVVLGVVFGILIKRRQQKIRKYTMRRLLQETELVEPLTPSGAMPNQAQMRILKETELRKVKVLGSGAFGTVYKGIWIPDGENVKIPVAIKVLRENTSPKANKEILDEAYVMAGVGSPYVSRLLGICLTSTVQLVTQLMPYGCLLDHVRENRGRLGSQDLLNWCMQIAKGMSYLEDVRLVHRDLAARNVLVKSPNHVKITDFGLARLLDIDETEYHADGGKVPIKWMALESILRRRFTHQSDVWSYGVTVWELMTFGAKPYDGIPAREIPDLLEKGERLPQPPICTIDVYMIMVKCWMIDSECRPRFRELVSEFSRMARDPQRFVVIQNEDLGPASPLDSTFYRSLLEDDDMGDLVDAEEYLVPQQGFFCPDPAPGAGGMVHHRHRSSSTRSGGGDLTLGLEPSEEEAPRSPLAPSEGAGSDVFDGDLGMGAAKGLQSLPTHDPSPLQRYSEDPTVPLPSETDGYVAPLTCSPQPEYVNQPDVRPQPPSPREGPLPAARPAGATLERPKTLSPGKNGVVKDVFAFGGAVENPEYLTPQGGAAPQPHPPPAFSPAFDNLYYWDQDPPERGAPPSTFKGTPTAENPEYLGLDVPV
# MAP2K3 (human), sequence (P46734 whole entry, looked up): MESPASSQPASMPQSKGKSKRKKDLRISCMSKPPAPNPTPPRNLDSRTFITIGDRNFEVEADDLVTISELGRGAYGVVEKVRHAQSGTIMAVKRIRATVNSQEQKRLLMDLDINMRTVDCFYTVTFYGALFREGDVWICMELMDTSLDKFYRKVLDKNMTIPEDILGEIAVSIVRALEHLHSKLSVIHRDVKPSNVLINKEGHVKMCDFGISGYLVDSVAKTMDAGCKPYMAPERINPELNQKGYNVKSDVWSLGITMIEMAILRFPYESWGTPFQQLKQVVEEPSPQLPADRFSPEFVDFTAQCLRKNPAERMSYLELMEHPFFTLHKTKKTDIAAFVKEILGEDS
# TEK (human), sequence (Q02763 whole entry, looked up): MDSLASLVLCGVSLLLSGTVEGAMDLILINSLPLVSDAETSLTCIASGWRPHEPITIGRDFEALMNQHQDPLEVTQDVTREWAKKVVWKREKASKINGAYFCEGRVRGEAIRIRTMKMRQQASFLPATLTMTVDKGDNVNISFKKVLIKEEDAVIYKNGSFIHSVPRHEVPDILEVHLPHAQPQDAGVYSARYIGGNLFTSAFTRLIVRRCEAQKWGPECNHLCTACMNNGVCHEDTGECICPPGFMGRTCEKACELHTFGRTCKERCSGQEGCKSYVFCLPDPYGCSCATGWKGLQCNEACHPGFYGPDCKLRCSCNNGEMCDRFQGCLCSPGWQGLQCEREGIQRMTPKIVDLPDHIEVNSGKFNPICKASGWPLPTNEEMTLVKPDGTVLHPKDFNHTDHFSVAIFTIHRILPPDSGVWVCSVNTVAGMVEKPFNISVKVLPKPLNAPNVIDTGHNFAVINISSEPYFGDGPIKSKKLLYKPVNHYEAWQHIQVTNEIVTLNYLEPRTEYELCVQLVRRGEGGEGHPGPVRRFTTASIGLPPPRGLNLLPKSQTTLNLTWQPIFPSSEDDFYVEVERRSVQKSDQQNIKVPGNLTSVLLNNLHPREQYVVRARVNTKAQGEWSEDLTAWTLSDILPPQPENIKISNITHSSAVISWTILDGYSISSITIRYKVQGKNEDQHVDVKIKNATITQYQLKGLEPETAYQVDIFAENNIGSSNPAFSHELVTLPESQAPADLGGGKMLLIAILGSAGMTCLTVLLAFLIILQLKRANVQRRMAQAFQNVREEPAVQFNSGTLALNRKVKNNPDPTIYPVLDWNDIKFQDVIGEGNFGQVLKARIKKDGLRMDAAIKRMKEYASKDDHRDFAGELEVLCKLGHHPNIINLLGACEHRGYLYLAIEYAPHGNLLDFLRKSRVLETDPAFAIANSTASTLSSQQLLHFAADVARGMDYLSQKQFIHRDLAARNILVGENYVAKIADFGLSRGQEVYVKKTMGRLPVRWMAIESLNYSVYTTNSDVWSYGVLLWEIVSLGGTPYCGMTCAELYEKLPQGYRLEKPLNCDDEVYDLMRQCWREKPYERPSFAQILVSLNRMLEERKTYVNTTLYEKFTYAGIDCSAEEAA
# INSRR (human), sequence (P14616 whole entry, looked up): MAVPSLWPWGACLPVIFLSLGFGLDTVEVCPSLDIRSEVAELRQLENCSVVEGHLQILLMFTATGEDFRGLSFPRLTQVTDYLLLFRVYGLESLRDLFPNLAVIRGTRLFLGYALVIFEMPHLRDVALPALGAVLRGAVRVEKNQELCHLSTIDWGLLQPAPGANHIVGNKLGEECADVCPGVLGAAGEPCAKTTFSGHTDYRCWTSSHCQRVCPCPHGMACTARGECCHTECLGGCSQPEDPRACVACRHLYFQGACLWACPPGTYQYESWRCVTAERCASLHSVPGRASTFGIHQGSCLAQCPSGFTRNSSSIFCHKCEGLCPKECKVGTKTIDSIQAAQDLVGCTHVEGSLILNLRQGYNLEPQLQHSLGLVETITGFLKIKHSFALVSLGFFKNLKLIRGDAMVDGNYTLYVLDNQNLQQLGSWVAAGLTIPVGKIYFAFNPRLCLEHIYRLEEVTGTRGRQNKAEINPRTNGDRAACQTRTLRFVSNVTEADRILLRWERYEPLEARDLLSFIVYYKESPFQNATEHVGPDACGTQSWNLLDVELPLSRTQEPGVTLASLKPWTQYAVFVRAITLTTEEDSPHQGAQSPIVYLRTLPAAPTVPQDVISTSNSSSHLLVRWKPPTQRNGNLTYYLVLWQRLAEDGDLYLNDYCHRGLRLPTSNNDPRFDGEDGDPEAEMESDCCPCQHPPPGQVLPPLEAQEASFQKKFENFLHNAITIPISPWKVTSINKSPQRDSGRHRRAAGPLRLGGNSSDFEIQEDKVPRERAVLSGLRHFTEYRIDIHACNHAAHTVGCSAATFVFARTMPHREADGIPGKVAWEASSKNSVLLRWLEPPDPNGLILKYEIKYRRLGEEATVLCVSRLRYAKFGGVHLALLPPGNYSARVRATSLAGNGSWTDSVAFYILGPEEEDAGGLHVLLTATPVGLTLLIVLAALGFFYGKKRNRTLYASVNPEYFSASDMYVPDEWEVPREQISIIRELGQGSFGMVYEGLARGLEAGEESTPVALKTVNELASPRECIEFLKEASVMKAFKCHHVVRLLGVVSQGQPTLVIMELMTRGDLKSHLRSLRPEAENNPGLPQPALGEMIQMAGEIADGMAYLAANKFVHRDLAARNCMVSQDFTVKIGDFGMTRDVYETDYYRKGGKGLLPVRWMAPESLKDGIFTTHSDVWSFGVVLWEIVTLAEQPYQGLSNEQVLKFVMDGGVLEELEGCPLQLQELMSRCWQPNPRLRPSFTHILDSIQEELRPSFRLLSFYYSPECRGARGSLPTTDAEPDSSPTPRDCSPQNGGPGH
# CAMK2D (human), sequence (Q13557 whole entry, looked up): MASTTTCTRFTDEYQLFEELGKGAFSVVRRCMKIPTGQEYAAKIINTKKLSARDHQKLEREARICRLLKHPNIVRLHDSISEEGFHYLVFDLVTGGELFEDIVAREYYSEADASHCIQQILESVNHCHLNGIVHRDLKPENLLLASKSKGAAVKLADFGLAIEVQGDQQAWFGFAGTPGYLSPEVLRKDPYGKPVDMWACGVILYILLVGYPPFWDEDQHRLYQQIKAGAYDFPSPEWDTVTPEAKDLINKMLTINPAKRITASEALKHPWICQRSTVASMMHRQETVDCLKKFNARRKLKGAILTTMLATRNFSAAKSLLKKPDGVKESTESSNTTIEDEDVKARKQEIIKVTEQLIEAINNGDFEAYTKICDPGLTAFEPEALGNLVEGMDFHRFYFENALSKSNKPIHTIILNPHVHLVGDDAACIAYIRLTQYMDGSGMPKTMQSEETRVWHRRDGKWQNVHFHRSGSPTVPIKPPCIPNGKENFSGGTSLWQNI
compound,measurement,setting,value
COc1ccc(-c2ccc3c(N4CCOCC4)nc(N4C[C@@H](C)O[C@@H](C)C4)nc3n2)cc1CO,"kinase still bound, per cent of control",[1],100%
same,"kinase still bound, per cent of control",PTK2 (human),95%
same,"kinase still bound, per cent of control",PHKG1 (human),93%
same,"kinase still bound, per cent of control",BMPR2 (human),79%
same,"kinase still bound, per cent of control",CSNK2A2 (human),98%
same,"kinase still bound, per cent of control",DAPK3 (human),89%
same,"kinase still bound, per cent of control",MAP2K3 (human),94%
same,"kinase still bound, per cent of control",TAOK3 (human),90%
same,"kinase still bound, per cent of control",MYO3B (human),100%
same,per cent of control,CDKL1 (human),100%
same,"kinase still bound, per cent of control",MAP4K2 (human),86%
same,"kinase still bound, per cent of control",MAP3K2 (human),78%
same,"kinase still bound, per cent of control",INSR (human),97%
same,"kinase still bound, per cent of control",PRKAA1 (human),97%
same,"kinase still bound, per cent of control",ERBB2 (human),94%
same,"kinase still bound, per cent of control",YSK4 (human),100%
same,"kinase still bound, per cent of control",NEK9 (human),89%
same,"kinase still bound, per cent of control",TEK (human),71%
same,"kinase still bound, per cent of control",INSRR (human),100%
same,"kinase still bound, per cent of control",SRPK3 (human),75%
same,"kinase still bound, per cent of control",MAPK15 (human),96%
same,"kinase still bound, per cent of control",TTK (human),95%
same,"kinase still bound, per cent of control",SGK3 (human),100%
same,"kinase still bound, per cent of control",CRK2 (P.falciparum),90%
same,"kinase still bound, per cent of control",MAPK6 (human),84%
same,"kinase still bound, per cent of control",CHEK2 (human),100%
same,"kinase still bound, per cent of control",PIK3C2G (human),43%
same,"kinase still bound, per cent of control",MERTK (human),100%
same,"kinase still bound, per cent of control",SGK110 (human),98%
same,"kinase still bound, per cent of control",GSK3B (human),100%
same,"kinase still bound, per cent of control",HUNK (human),90%
same,"kinase still bound, per cent of control",[2],2%
same,"kinase still bound, per cent of control",[3],90%
same,"kinase still bound, per cent of control",LIMK2 (human),94%
same,"kinase still bound, per cent of control",ERN1 (human),89%
same,"kinase still bound, per cent of control",PRKD2 (human),96%
same,"kinase still bound, per cent of control",DCLK3 (human),100%
same,"kinase still bound, per cent of control",CAMK2D (human),100%
same,per cent of control,CDKL3 (human),90%
same,per cent of control,CDK4 CCND1 (human),70%
same,"kinase still bound, per cent of control",RIPK1 (human),100%
CC(C)n1nc(-c2cc3cc(O)ccc3[nH]2)c2c(N)ncnc21,"kinase still bound, per cent of control",[1],0%
same,"kinase still bound, per cent of control",PTK2 (human),100%
same,"kinase still bound, per cent of control",PHKG1 (human),50%
same,"kinase still bound, per cent of control",BMPR2 (human),0.1%
same,"kinase still bound, per cent of control",CSNK2A2 (human),3.5%
same,"kinase still bound, per cent of control",DAPK3 (human),2.8%
same,"kinase still bound, per cent of control",MAP2K3 (human),1.7%
same,"kinase still bound, per cent of control",TAOK3 (human),4.7%
same,"kinase still bound, per cent of control",MYO3B (human),19%
same,per cent of control,CDKL1 (human),100%
same,"kinase still bound, per cent of control",MAP4K2 (human),0%
same,"kinase still bound, per cent of control",MAP3K2 (human),4.8%
same,"kinase still bound, per cent of control",INSR (human),100%
same,"kinase still bound, per cent of control",PRKAA1 (human),43%
same,"kinase still bound, per cent of control",ERBB2 (human),29%
same,"kinase still bound, per cent of control",YSK4 (human),0%
same,"kinase still bound, per cent of control",NEK9 (human),100%
same,"kinase still bound, per cent of control",TEK (human),21%
same,"kinase still bound, per cent of control",INSRR (human),100%
same,"kinase still bound, per cent of control",SRPK3 (human),83%
same,"kinase still bound, per cent of control",MAPK15 (human),54%
same,"kinase still bound, per cent of control",TTK (human),9.2%
same,"kinase still bound, per cent of control",SGK3 (human),81%
same,"kinase still bound, per cent of control",CRK2 (P.falciparum),93%
same,"kinase still bound, per cent of control",MAPK6 (human),52%
same,"kinase still bound, per cent of control",CHEK2 (human),19%
same,"kinase still bound, per cent of control",PIK3C2G (human),3.4%
same,"kinase still bound, per cent of control",MERTK (human),61%
same,"kinase still bound, per cent of control",SGK110 (human),100%
same,"kinase still bound, per cent of control",GSK3B (human),91%
same,"kinase still bound, per cent of control",HUNK (human),99%
same,"kinase still bound, per cent of control",[3],0.3%
same,"kinase still bound, per cent of control",LIMK2 (human),77%
same,"kinase still bound, per cent of control",ERN1 (human),31%
same,"kinase still bound, per cent of control",PRKD2 (human),100%
same,"kinase still bound, per cent of control",DCLK3 (human),10%
same,"kinase still bound, per cent of control",CAMK2D (human),69%
same,per cent of control,CDKL3 (human),100%
same,per cent of control,CDK4 CCND1 (human),60%
same,"kinase still bound, per cent of control",RIPK1 (human),100%
